Experimental data reported in paper PMC11557435, “Identification of novel SARS-CoV-2 3CLpro inhibitors by molecular docking, in vitro assays, molecular dynamics simulations and DFT analyses” (Frontiers in Pharmacology, 2024).

Target: SARS-CoV-2 3CLpro (Severe acute respiratory syndrome coronavirus 2, UniProt P0DTD1)
Experiment: biochemical
Conditions: for inhibition at 50 µM: single point, 50 μM compound

`CCC(CC)C(=O)Nc1cccc(C(=O)Nc2ccccc2C(=O)Nc2ccc(OC)cc2)c1` [Compound 43] gave an IC50 of 6.99 ± 0.62 µM and an inhibition at 50 µM of 84.8%.

`CC[C@H](C)[C@H](NC(=O)c1ccc2nc(-n3cccc3)sc2c1)C(=O)NCc1cccnc1` [Compound 5] gave an IC50 of 8.5 ± 0.26 µM and an inhibition at 50 µM of 84%.

In the case of `COc1cc(-c2nc3cnccn3c2Nc2cccc(Cl)c2)ccc1O` [Compound 10], the IC50 is reported as 9.08 ± 0.56 µM and the inhibition at 50 µM is reported as 78%.

`CC[C@H](C)N(Cc1cccc(OC)c1)C[C@@H](O)COc1ccc(OC)cc1` [Compound 1] gave an IC50 of 8.98 ± 0.57 µM and an inhibition at 50 µM of 85.4%.

For `COc1ccc(NC(=O)c2ccccc2NC(=O)c2ccc([N+](=O)[O-])c(C)c2)cc1` [Compound 36], the IC50 was 4.47 ± 0.39 µM and the inhibition at 50 µM was 81.9%.

In the case of `CCOc1ccc(NC(=O)C(CC(C)C)NC(=O)C2CCC(C)CC2)cc1` (stereo not drawn) [Compound 34], the IC50 is reported as 6.12 ± 0.42 µM and the inhibition at 50 µM is reported as 78.3%.
